# Values joined by “and” are separate entries in the source; they are usually repeats but may differ in a detail not shown here. Equal entries are not always repeated. Where two headings read alike, the source gives them in different places.
# Assays:
# [1] = system: subjects with diabetic or idiopathic gastroparesis
# Text: A daily proprietary patient reported outcome (PRO) tool was used to assess GP symptoms, the Gastroparesis Rating Scale (GRS), developed according to the current FDA PRO guidance. The GRS covers the following cardinal symptom domains: (1) nausea, (2) vomiting, (3) postprandial fullness/early satiety, (4) bloating, (5) upper abdominal pain, (6) gastric reflux/burning, and (7) bowel movements. The GRS symptom domains may be also categorized or grouped into Factor 1 (fullness, early satiety, bloating, upper abdominal pain, and epigastric burning) and Factor 2 (nausea and vomiting).
# GRS Factor 1 (also Summary Score 1) comprised fullness/early satiety, bloating, upper abdominal pain, and epigastric burning domains, whereas GRS Factor 2 (also Summary Score 2) comprised nausea and vomiting domains.
# After the psychometric evaluation the GRS was summarized using two summary scores: Summary Score 1 combined the fullness/early satiety, bloating, upper abdominal pain, and epigastric burning domains and Summary Score 2 combined the nausea and vomiting domains.
# [2] = system: subjects with diabetic or idiopathic gastroparesis; experiment: DIGEST I: responder analysis of GRS Summary Scores;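 note: weekly responder means a clinically relevant symptom change versus baseline, and weeks with missing data (dropouts) count as non-response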
# Text: A weekly responder was defined as a subject who experienced a clinically relevant change in symptoms from baseline.
# Given these observations, a responder is any subject being a weekly responder for at least 6 of 12 weeks and at least 3 of the last 4 weeks of treatment. Subjects with missing data in the week (drop out) were defined as a non-responder for that week.
# [3] = 5 mg/day, Week 4, diabetic gastroparesis population
# [4] = 5 mg/day, Week 4, idiopathic gastroparesis population
# [5] = 5 mg/day, Week 8, diabetic gastroparesis population
# [6] = 5 mg/day, Week 8, idiopathic gastroparesis population
# [7] = 15 mg/day, Week 4, diabetic gastroparesis population
# [8] = 15 mg/day, Week 4, idiopathic gastroparesis population
# [9] = 15 mg/day, Week 8, diabetic gastroparesis population
# [10] = 15 mg/day, Week 8, idiopathic gastroparesis population
# [11] = 15 mg/day, Week 12, diabetic gastroparesis population
# [12] = 15 mg/day, Week 12, idiopathic gastroparesis population
# [13] = 30 mg/day, Week 4, diabetic gastroparesis population
# [14] = 30 mg/day, Week 4, idiopathic gastroparesis population
# [15] = 30 mg/day, Week 8, diabetic gastroparesis population
# [16] = 30 mg/day, Week 8, idiopathic gastroparesis population
# [17] = 30 mg/day, Week 12, diabetic gastroparesis population
# [18] = 30 mg/day, Week 12, idiopathic gastroparesis population
# [19] = 5 mg/day, responders for at least 6 of 12 weeks, ITT
# [20] = 15 mg/day, at least 6 of 12 weeks and at least 3 weeks of Weeks 9-12, ITT
# [21] = 15 mg/day, diabetic gastroparesis population
# [22] = 15 mg/day, idiopathic gastroparesis population
# [23] = 15 mg/day, responders for at least 6 of 12 weeks, ITT
# [24] = 30 mg/day, at least 6 of 12 weeks and at least 3 weeks of Weeks 9-12, ITT
# [25] = 30 mg/day, diabetic gastroparesis population
# [26] = 30 mg/day, idiopathic gastroparesis population
# [27] = 30 mg/day, responders for at least 6 of 12 weeks, ITT
substance,measurement,setting,value
"1-isopropyl-2-oxo-1,2-dihydroquinoline-3-carboxylic acid {(1S,3R,5R)-8-[(R)-2-hydroxy-3-(methanesulfonyl-methyl-amino)propyl]-8-azabicyclo[3.2.1]oct-3-yl}amide [Velusetrag]","LS Mean Difference vs placebo, GRS Summary Score 1 (Factor 1)","[1]; 5 mg/day, Week 4, ITT",−0.4 points and −0.4 (0.16) points
same,"LS Mean change from baseline, GRS Summary Score 1 (Factor 1)","[1]; 5 mg/day, Week 4, ITT",−1.3 (0.11) points
same,"LS Mean Difference vs placebo, GRS Summary Score 1 (Factor 1)",[1]; [3],−0.3 (0.22) points
same,"LS Mean change from baseline, GRS Summary Score 1 (Factor 1)",[1]; [3],−1.2 (0.16) points
same,"LS Mean Difference vs placebo, GRS Summary Score 1 (Factor 1)",[1]; [4],−0.5 (0.23) points
same,"LS Mean change from baseline, GRS Summary Score 1 (Factor 1)",[1]; [4],−1.3 (0.16) points
same,"LS Mean Difference vs placebo, GRS Summary Score 1 (Factor 1)","[1]; 5 mg/day, Week 8, ITT",−0.3 (0.18) points
same,"LS Mean change from baseline, GRS Summary Score 1 (Factor 1)","[1]; 5 mg/day, Week 8, ITT",−1.4 (0.13) points
same,"LS Mean Difference vs placebo, GRS Summary Score 1 (Factor 1)",[1]; [5],−0.2 (0.25) points
same,"LS Mean change from baseline, GRS Summary Score 1 (Factor 1)",[1]; [5],−1.4 (0.18) points
same,"LS Mean Difference vs placebo, GRS Summary Score 1 (Factor 1)",[1]; [6],−0.4 (0.26) points
same,"LS Mean change from baseline, GRS Summary Score 1 (Factor 1)",[1]; [6],−1.4 (0.18) points
same,"LS Mean Difference vs placebo, GRS Summary Score 1 (Factor 1)","[1]; 5 mg/day, Week 12, ITT",−0.4 points and −0.4 (0.19) points
same,"LS Mean change from baseline, GRS Summary Score 1 (Factor 1)","[1]; 5 mg/day, Week 12, ITT",−1.5 (0.13) points
same,"LS Mean Difference vs placebo, GRS Summary Score 1 (Factor 1)","[1]; 15 mg/day, Week 4, ITT",−0.2 (0.17) points
same,"LS Mean change from baseline, GRS Summary Score 1 (Factor 1)","[1]; 15 mg/day, Week 4, ITT",−1.1 (0.12) points
same,"LS Mean Difference vs placebo, GRS Summary Score 1 (Factor 1)",[1]; [7],−0.2 points
same,"LS Mean change from baseline, GRS Summary Score 1 (Factor 1)",[1]; [7],−1.2 points
same,"LS Mean Difference vs placebo, GRS Summary Score 1 (Factor 1)",[1]; [8],−0.4 (0.25) points
same,"LS Mean change from baseline, GRS Summary Score 1 (Factor 1)",[1]; [8],−1.2 (0.18) points
same,"LS Mean Difference vs placebo, GRS Summary Score 1 (Factor 1)","[1]; 15 mg/day, Week 8, ITT",−0.1 (0.19) points
same,"LS Mean change from baseline, GRS Summary Score 1 (Factor 1)","[1]; 15 mg/day, Week 8, ITT",−1.2 (0.14) points
same,"LS Mean Difference vs placebo, GRS Summary Score 1 (Factor 1)",[1]; [9],0.0 points
same,"LS Mean change from baseline, GRS Summary Score 1 (Factor 1)",[1]; [9],−1.2 points
same,"LS Mean Difference vs placebo, GRS Summary Score 1 (Factor 1)",[1]; [10],−0.4 (0.28) points
same,"LS Mean change from baseline, GRS Summary Score 1 (Factor 1)",[1]; [10],−1.3 (0.20) points
same,"LS Mean Difference vs placebo, GRS Summary Score 1 (Factor 1)","[1]; 15 mg/day, Week 12, ITT",−0.2 (0.2) points
same,"LS Mean change from baseline, GRS Summary Score 1 (Factor 1)","[1]; 15 mg/day, Week 12, ITT",−1.3 (0.15) points
same,"LS Mean Difference vs placebo, GRS Summary Score 1 (Factor 1)",[1]; [11],0.0 points
same,"LS Mean change from baseline, GRS Summary Score 1 (Factor 1)",[1]; [11],−1.3 points
same,"LS Mean Difference vs placebo, GRS Summary Score 1 (Factor 1)",[1]; [12],−0.4 (0.29) points
same,"LS Mean change from baseline, GRS Summary Score 1 (Factor 1)",[1]; [12],−1.4 (0.22) points
same,"LS Mean Difference vs placebo, GRS Summary Score 1 (Factor 1)","[1]; 30 mg/day, Week 4, ITT",0.0 (0.17) points
same,"LS Mean change from baseline, GRS Summary Score 1 (Factor 1)","[1]; 30 mg/day, Week 4, ITT",−0.8 (0.12) points
same,"LS Mean Difference vs placebo, GRS Summary Score 1 (Factor 1)",[1]; [13],0.1 points
same,"LS Mean change from baseline, GRS Summary Score 1 (Factor 1)",[1]; [13],−0.8 points
same,"LS Mean Difference vs placebo, GRS Summary Score 1 (Factor 1)",[1]; [14],−0.0 (0.23) points
same,"LS Mean change from baseline, GRS Summary Score 1 (Factor 1)",[1]; [14],−0.8 (0.16) points
same,"LS Mean Difference vs placebo, GRS Summary Score 1 (Factor 1)","[1]; 30 mg/day, Week 8, ITT",−0.1 (0.18) points
same,"LS Mean change from baseline, GRS Summary Score 1 (Factor 1)","[1]; 30 mg/day, Week 8, ITT",−1.1 (0.13) points
same,"LS Mean Difference vs placebo, GRS Summary Score 1 (Factor 1)",[1]; [15],0.0 points
same,"LS Mean change from baseline, GRS Summary Score 1 (Factor 1)",[1]; [15],−1.2 points
same,"LS Mean Difference vs placebo, GRS Summary Score 1 (Factor 1)",[1]; [16],−0.2 (0.26) points
same,"LS Mean change from baseline, GRS Summary Score 1 (Factor 1)",[1]; [16],−1.1 (0.18) points
same,"LS Mean Difference vs placebo, GRS Summary Score 1 (Factor 1)","[1]; 30 mg/day, Week 12, ITT",−0.1 (0.2) points
same,"LS Mean change from baseline, GRS Summary Score 1 (Factor 1)","[1]; 30 mg/day, Week 12, ITT",−1.2 (0.14) points
same,"LS Mean Difference vs placebo, GRS Summary Score 1 (Factor 1)",[1]; [17],−0.1 points
same,"LS Mean change from baseline, GRS Summary Score 1 (Factor 1)",[1]; [17],−1.3 points
same,"LS Mean Difference vs placebo, GRS Summary Score 1 (Factor 1)",[1]; [18],−0.1 (0.28) points
same,"LS Mean change from baseline, GRS Summary Score 1 (Factor 1)",[1]; [18],−1.1 (0.19) points
same,LS Proportion of positive responders; Summary Score 1,[2]; [19],0.54
same,LS Proportion of positive responders; Summary Score 2,[2]; [19],0.57
same,"Responders, %; Summary Score 1",[2]; [19],(55.9) %
same,"Responders, %; Summary Score 2",[2]; [19],(57.6) %
same,"Responders, n; Summary Score 1",[2]; [19],33
same,"Responders, n; Summary Score 2",[2]; [19],34
same,LS Proportion of positive responders; Summary Score 1,[2]; [20],0.45
same,LS Proportion of positive responders; Summary Score 2,[2]; [20],0.43
same,"Responders, %; Summary Score 1",[2]; [20],(45.3) %
same,"Responders, %; Summary Score 2",[2]; [20],(43.4) %
same,"Responders, n; Summary Score 1",[2]; [20],24
same,"Responders, n; Summary Score 2",[2]; [20],23
same,LS Proportion of positive responders; Summary Score 1,[2]; [21],0.44
same,LS Proportion of positive responders; Summary Score 2,[2]; [21],0.31
same,"Responders, %; Summary Score 1",[2]; [21],(44.8) %
same,"Responders, %; Summary Score 2",[2]; [21],(34.5) %
same,"Responders, n; Summary Score 1",[2]; [21],13
same,"Responders, n; Summary Score 2",[2]; [21],10
same,LS Proportion of positive responders; Summary Score 1,[2]; [22],0.48
same,LS Proportion of positive responders; Summary Score 2,[2]; [22],0.58
same,"Responders, %; Summary Score 1",[2]; [22],(45.8) %
same,"Responders, %; Summary Score 2",[2]; [22],(54.2) %
same,"Responders, n; Summary Score 1",[2]; [22],11
same,"Responders, n; Summary Score 2",[2]; [22],13
same,LS Proportion of positive responders; Summary Score 1,[2]; [23],0.49
same,LS Proportion of positive responders; Summary Score 2,[2]; [23],0.51
same,"Responders, %; Summary Score 1",[2]; [23],(49.1) %
same,"Responders, %; Summary Score 2",[2]; [23],(50.9) %
same,"Responders, n; Summary Score 1",[2]; [23],26
same,"Responders, n; Summary Score 2",[2]; [23],27
same,LS Proportion of positive responders; Summary Score 1,[2]; [24],0.44
same,LS Proportion of positive responders; Summary Score 2,[2]; [24],0.45
same,"Responders, %; Summary Score 1",[2]; [24],(47.4) %
same,"Responders, %; Summary Score 2",[2]; [24],(49.1) %
same,"Responders, n; Summary Score 1",[2]; [24],27
same,"Responders, n; Summary Score 2",[2]; [24],28
same,LS Proportion of positive responders; Summary Score 1,[2]; [25],0.48
same,LS Proportion of positive responders; Summary Score 2,[2]; [25],0.45
same,"Responders, %; Summary Score 1",[2]; [25],(50.0) %
same,"Responders, %; Summary Score 2",[2]; [25],(50.0) %
same,"Responders, n; Summary Score 1",[2]; [25],13
same,"Responders, n; Summary Score 2",[2]; [25],13
same,LS Proportion of positive responders; Summary Score 1,[2]; [26],0.41
same,LS Proportion of positive responders; Summary Score 2,[2]; [26],0.45
same,"Responders, %; Summary Score 1",[2]; [26],(45.2) %
same,"Responders, %; Summary Score 2",[2]; [26],(48.4) %
same,"Responders, n; Summary Score 1",[2]; [26],14
same,"Responders, n; Summary Score 2",[2]; [26],15
same,LS Proportion of positive responders; Summary Score 1,[2]; [27],0.44
same,LS Proportion of positive responders; Summary Score 2,[2]; [27],0.47
same,"Responders, %; Summary Score 1",[2]; [27],(47.4) %
same,"Responders, %; Summary Score 2",[2]; [27],(50.9) %
same,"Responders, n; Summary Score 1",[2]; [27],27
same,"Responders, n; Summary Score 2",[2]; [27],29
